Laboratory results published in ChEMBL document CHEMBL3758080, “4-Arylamino-6-nitroquinazolines: Synthesis and their activities against neglected disease leishmaniasis” (Eur J Med Chem, 2016).
pIC50: −log10 of the molar value.

Tested on: Leishmania major
Experiment: Potency index, ratio IC50 of pentamidine to IC50 of compound for antilieshmanial activity against Leishmania major promastigotes
Type: functional
Settings: not given; call rule not given here

Compound | Ratio IC50
CSc1ccc(Nc2ncnc3ccc([N+](=O)[O-])cc23)cc1 | 3

Tested on: Leishmania major
Experiment: Antileishmanial activity against Leishmania major promastigotes after 72 hrs by Neubauer counting chamber based microscopy
Type: functional, organism-based
Settings: not given

IC50 | Compound
Not Active | O=[N+]([O-])c1ccc2ncnc(Nc3cccc(Cl)c3)c2c1
Not Active | O=[N+]([O-])c1ccc2ncnc(Nc3ccccc3)c2c1
Not Active | O=[N+]([O-])c1ccc2ncnc(Nc3ccc(F)cc3)c2c1
Not Active | O=[N+]([O-])c1ccc2ncnc(Nc3ccc(I)cc3)c2c1
Not Active | COc1cccc(Nc2ncnc3ccc([N+](=O)[O-])cc23)c1
Not Active | O=[N+]([O-])c1ccc2ncnc(Nc3ccc(Cl)cc3Cl)c2c1
Not Active | O=[N+]([O-])c1ccc2ncnc(Nc3ccc(Cl)cc3)c2c1
Not Active | O=[N+]([O-])c1ccc2ncnc(Nc3cccc(O)c3)c2c1
Not Active | COc1ccc(Nc2ncnc3ccc([N+](=O)[O-])cc23)cc1
Not Active | Cc1ccc(C)c(Nc2ncnc3ccc([N+](=O)[O-])cc23)c1
Not Active | O=[N+]([O-])c1ccc2ncnc(Nc3cc(Cl)ccc3Cl)c2c1
Not Active | O=[N+]([O-])c1ccc2ncnc(Nc3ccc(Cl)c(Cl)c3)c2c1
Not Active | COc1cc(OC)c(Nc2ncnc3ccc([N+](=O)[O-])cc23)cc1Cl

Same assay, conditions: Leishmania major, 72 h; read-out: IC50

pIC50 | Compound
5.04 | O=[N+]([O-])c1ccc2ncnc(Nc3cccc(Br)c3)c2c1
4.45 | Cc1ccc(Nc2ncnc3ccc([N+](=O)[O-])cc23)cc1C
5.36 | COc1ccccc1Nc1ncnc2ccc([N+](=O)[O-])cc12
4.35 | Cc1ccc(Cl)cc1Nc1ncnc2ccc([N+](=O)[O-])cc12
4.91 | COc1ccc(OC)c(Nc2ncnc3ccc([N+](=O)[O-])cc23)c1
5.19 | O=[N+]([O-])c1ccc2ncnc(Nc3ccccc3Cl)c2c1
5.73 | CSc1ccc(Nc2ncnc3ccc([N+](=O)[O-])cc23)cc1
4.62 | Cc1ccc(Nc2ncnc3ccc([N+](=O)[O-])cc23)cc1
4.42 | CCc1ccc(Nc2ncnc3ccc([N+](=O)[O-])cc23)cc1
4.70 | CSc1cccc(Nc2ncnc3ccc([N+](=O)[O-])cc23)c1
4.21 | O=[N+]([O-])c1ccc2ncnc(Nc3ccc(Br)cc3)c2c1
